The values below are quoted from earlier work in patent US12637520B2, “Conjugation chemistry for catalytic antibody 38C2” (UNIVERSITY OF FLORIDA RESEARCH FOUNDATION, INCORPORATED, priority 2019, dated 2026).

The target of the data set is open conformation of integrin α4β1 (Homo sapiens, UniProt P05556+P13612). The note with it: cited from earlier work.
open conformation of integrin α4β1, sequence (P13612 34-1032): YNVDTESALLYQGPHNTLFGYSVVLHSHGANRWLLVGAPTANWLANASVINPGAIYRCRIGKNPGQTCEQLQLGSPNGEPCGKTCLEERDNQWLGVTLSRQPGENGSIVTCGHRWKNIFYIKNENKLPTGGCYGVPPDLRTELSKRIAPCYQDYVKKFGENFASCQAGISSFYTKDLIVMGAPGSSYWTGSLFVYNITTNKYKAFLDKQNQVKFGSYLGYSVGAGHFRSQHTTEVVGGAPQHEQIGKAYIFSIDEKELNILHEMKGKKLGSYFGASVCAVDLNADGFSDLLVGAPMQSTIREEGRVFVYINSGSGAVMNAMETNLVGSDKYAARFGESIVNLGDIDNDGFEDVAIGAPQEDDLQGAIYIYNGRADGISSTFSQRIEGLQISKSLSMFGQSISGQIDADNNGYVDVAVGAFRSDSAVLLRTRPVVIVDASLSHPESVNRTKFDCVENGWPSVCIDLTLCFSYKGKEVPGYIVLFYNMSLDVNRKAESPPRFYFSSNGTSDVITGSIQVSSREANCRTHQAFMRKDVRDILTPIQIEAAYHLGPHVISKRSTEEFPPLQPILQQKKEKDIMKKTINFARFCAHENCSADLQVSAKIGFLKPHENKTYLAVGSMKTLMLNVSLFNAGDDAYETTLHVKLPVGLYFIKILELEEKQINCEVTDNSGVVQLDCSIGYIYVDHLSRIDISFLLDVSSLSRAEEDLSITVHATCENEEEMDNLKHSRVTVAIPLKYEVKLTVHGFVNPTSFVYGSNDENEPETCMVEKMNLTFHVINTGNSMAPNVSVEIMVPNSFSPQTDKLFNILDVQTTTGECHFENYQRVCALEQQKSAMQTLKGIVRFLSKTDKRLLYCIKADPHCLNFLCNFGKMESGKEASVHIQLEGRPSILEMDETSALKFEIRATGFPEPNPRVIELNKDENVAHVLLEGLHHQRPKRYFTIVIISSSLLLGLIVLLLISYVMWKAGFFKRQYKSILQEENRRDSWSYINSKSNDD
open conformation of integrin α4β1, sequence (P05556 21-798): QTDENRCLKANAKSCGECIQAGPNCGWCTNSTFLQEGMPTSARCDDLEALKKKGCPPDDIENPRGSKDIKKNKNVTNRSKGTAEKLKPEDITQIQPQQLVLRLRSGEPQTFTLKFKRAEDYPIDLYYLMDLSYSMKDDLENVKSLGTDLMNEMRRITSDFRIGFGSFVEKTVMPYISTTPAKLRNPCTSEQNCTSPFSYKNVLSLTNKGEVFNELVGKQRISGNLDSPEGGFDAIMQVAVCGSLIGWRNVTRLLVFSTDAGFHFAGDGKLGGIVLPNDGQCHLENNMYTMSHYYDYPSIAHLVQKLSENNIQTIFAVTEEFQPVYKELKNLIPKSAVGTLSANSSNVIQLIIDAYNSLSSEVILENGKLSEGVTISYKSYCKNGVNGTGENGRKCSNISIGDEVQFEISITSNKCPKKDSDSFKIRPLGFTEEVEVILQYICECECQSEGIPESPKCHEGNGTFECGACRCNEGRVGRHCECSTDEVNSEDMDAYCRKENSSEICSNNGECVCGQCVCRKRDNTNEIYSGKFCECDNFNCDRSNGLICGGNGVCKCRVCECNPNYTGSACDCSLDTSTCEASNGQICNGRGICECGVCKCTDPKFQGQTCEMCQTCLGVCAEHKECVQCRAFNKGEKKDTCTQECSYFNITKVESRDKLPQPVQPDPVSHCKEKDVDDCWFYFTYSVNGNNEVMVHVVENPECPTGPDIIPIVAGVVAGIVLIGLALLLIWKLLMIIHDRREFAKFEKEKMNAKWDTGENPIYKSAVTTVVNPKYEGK

In the case of `Cc1ccccc1NC(=O)Nc1ccc(CC(=O)N[C@@H](CCCCNC(=O)/C=C/c2cccnc2)C(=O)N[C@@H](CCCC(=O)O)C(=O)NC2(C(N)=O)CCCCC2)cc1` [LLP2A], the “affinity for open conformation of integrin α4β1” value was “picomolar-affinity”.
